Assay results published in patent US20200239530A1, “COMPOUNDS AND METHODS OF MODULATING PROTEIN DEGRADATION” (Vividion Therapeutics, Inc., priority 2017, published 2020).

Columns and labels:
Test in all cases: Cysteine liganding, probe competition
Assay type in all cases: binding
[1] = target: T1, CEP44 Centrosomal protein of 44 kDa (Homo sapiens, UniProt Q9C0F1)
T1 construct: 200 μL of lysate containing 5 mg/ml proteome was treated with 2 μL of 100× compound stock; endogenous in cells
T1 sequence (Q9C0F1 1-390): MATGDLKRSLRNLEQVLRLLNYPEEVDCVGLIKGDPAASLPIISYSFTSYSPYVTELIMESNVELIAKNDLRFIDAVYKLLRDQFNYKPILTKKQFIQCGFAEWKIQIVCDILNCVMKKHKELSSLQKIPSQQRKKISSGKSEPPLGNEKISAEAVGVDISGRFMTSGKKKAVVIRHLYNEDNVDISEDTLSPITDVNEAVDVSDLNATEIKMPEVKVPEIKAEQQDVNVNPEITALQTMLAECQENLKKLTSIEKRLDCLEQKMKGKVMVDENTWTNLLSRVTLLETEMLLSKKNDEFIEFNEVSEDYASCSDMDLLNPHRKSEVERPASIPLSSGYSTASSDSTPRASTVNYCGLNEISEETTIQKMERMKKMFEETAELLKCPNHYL
Summary of the method: (§1)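 Lysates from probe-sonicated cells in PBS (5 mg/ml proteome) were exposed to compound for 1 hr at 25° C, then labelled with desthiobiotin iodoacetamide probe (10 mM stock) for 1 hr at 25° C. Probe-tagged peptides were streptavidin-enriched after trypsin digestion.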

[2] = target: T2, NEK9 Serine/threonine-protein kinase Nek9 (Homo sapiens, UniProt Q8TD19)
T2 construct: Cells were resuspended in cold PBS on ice and sonicated with a probe sonicator to achieve lysis; endogenous in cells
T2 sequence (Q8TD19 1-979): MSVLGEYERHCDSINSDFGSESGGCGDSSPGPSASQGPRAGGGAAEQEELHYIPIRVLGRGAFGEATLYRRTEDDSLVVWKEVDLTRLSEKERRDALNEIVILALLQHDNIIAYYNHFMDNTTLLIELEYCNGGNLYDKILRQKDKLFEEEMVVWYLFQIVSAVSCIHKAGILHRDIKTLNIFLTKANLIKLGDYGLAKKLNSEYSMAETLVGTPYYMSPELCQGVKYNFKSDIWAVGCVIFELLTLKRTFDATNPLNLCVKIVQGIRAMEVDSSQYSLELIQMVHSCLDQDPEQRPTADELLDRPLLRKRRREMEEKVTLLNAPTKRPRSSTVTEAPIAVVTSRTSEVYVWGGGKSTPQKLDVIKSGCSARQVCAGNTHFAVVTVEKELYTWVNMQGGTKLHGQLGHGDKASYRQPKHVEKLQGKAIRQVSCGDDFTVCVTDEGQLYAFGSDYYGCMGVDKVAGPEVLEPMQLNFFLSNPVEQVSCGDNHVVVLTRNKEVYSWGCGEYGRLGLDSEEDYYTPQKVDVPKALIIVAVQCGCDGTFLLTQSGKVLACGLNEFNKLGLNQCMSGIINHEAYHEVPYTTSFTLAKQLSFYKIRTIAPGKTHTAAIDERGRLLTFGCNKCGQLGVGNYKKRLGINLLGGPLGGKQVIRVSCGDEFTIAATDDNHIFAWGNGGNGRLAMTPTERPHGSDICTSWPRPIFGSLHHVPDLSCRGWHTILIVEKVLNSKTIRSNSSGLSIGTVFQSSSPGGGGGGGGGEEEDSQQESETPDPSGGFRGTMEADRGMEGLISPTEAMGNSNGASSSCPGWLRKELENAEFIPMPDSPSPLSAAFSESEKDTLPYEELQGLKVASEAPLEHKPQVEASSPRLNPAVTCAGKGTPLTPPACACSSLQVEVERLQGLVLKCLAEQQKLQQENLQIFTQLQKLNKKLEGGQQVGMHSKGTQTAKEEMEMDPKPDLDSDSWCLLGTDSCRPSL
Summary of the method: as §1

[3] = target: T3, RPS6KA1 Ribosomal protein S6 kinase alpha-1 (Homo sapiens, UniProt Q15418)
T3 construct: Cells were resuspended in cold PBS on ice and sonicated with a probe sonicator to achieve lysis; endogenous in cells
T3 sequence (Q15418 whole entry): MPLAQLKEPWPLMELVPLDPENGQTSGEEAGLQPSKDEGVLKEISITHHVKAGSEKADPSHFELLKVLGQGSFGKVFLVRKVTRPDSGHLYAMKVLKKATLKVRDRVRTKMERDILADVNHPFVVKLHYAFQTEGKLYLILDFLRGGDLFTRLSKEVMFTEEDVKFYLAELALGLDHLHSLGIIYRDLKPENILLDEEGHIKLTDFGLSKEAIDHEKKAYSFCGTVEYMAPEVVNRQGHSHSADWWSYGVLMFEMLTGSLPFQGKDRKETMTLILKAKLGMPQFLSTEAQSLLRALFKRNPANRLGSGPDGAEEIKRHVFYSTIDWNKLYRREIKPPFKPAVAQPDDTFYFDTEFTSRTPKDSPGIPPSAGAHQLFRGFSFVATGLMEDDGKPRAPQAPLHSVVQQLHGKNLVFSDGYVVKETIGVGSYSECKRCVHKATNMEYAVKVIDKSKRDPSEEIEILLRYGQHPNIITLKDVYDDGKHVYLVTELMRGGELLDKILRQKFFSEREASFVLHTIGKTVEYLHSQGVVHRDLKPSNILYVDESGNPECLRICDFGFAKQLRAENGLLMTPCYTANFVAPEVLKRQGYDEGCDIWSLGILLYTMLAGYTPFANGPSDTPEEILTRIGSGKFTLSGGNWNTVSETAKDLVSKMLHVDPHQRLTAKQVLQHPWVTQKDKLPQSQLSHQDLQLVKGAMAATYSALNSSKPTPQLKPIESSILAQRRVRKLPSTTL
Summary of the method: as §1

In the case of `COc1ccc2c(c1)CCCN2C(=O)CCl` [KB02], the Liganded ([1]; CEP44 Res# 28, uniprot Q9C0F1) is reported as “YES”, the Liganded ([2]; NEK9 Res# 260, uniprot Q8TD19) is reported as “YES” and the Liganded ([3]; RPS6KA1 Res# 223, uniprot Q15418) is reported as “YES”.
For `O=C(CCl)Nc1cc(C(F)(F)F)cc(C(F)(F)F)c1` [KBO3], the 100 ave ([1]; uniprot Q9C0F1) was 14.85, the 500 ave ([1]; uniprot Q9C0F1) was 69.9 and the “100 Max” value ([1]; uniprot Q9C0F1, in % (unit assumed)) was 14.85. For the same compound, the 500 Max ([1]; uniprot Q9C0F1, unit assumed) was 69.9%, the “100 Max” value ([2]; uniprot Q8TD19) was 9.47 and the 100 ave ([2]; uniprot Q8TD19) was 9.47. For the same compound, the “500 Max” value ([2]; uniprot Q8TD19) was 56.18, the 500 ave ([2]; uniprot Q8TD19) was 56.18 and the “100 Max” value ([3]; uniprot Q15418) was 1.03. For the same compound, the 100 ave ([3]; uniprot Q15418) was 1.03, the 500 ave ([3]; uniprot Q15418) was 30.61 and the “500 Max” value ([3]; uniprot Q15418, in % (unit assumed)) was 30.61.
